What follows are molecules tested against T1, human GnRH receptor (Homo sapiens, UniProt P30968) (assay: IP-One HTRF assay with buserelin (at EC80) stimulation). Details: CHO cells stably expressing human GnRH receptor, read-out: Potency in IP-One HTRF assay, given as IC50.
T1 sequence (P30968 1-328): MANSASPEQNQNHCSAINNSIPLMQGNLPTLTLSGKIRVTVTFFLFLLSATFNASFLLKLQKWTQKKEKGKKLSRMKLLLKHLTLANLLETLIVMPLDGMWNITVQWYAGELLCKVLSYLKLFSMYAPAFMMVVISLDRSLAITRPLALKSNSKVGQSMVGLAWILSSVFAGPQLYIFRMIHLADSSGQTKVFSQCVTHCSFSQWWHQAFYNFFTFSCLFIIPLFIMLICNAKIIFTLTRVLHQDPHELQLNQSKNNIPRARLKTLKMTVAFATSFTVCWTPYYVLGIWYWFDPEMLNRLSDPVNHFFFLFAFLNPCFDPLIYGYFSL
Format: cell-based
How it was run: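 Ten-point duplicate titrations (20 μM to 1 nM) were fitted by 4-parameter model to normalized 665/620 nm HTRF ratios, 0% = no compound, 100% = no agonist. Assay measured IP1 accumulation in human GnRH-R CHO cells stimulated 1 h at 37° C with EC80 buserelin, then lysed 1 h at 22° C.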

**Q.** With CN(C)C(=NS(=O)(=O)c1cccc(NC(=O)c2ccc3c(c2)C2(CCS(=O)(=O)CC2)C(C2CC2)N3S(=O)(=O)c2ccc(F)cc2)c1)N(C)C (single isomer, unassigned) [Example 64.2, N-(3-{[bis(dimethylamino)methylidene]sulfamoyl}phenyl)-2-cyclopropyl-1-[(4-fluorophenyl)sulfonyl]-1,2,2′,3′,5′,6′-hexahydrospiro[indole-3,4′-thiopyran]-5-carboxamide 1′,1′-dioxide] as the molecule, how does the IC50 read?
**A.** 66 nM

**Q.** For O=C(NCc1ccccc1C(F)F)c1ccc2c(c1)C1(CCS(=O)(=O)CC1)C(C1CC1)N2S(=O)(=O)c1ccc(F)cc1 (single isomer, unassigned) [Example 68.2, 2-cyclopropyl-N-[2-(difluoromethyl)benzyl]-1-[(4-fluorophenyl)sulfonyl]-1,2,2′,3′,5′,6′-hexahydrospiro[indole-3,4′-thiopyran]-5-carboxamide 1′,1′-dioxide], which IC50 is on record?
**A.** 143 nM

**Q.** Which IC50 does the source give for N#Cc1ccc(S(=O)(=O)N2c3ccc(C(=O)NCc4ncccc4Cl)cc3C3(CCS(=O)(=O)CC3)C2C2CC2)cc1 (single isomer, unassigned) [Example 70.1, N-[(3-chloropyridin-2-yl)methyl]-1-[(4-cyanophenyl)sulfonyl]-2-cyclopropyl-1,2,2′,3′,5′,6′-hexahydrospiro[indole-3,4′-thiopyran]-5-carboxamide 1′,1′-dioxide] here?
**A.** 33 nM

**Q.** Which IC50 does the source give for N#Cc1ccc(S(=O)(=O)N2c3ccc(C(=O)NCc4ncccc4Cl)cc3C3(CCS(=O)(=O)CC3)C2C2CC2)cc1 (single isomer, unassigned) [Example 70.2, N-[(3-chloropyridin-2-yl)methyl]-1-[(4-cyanophenyl)sulfonyl]-2-cyclopropyl-1,2,2′,3′,5′,6′-hexahydrospiro[indole-3,4′-thiopyran]-5-carboxamide 1′,1′-dioxide] here?
**A.** 202 nM

**Q.** Which IC50 does the source give for N#Cc1ccc(S(=O)(=O)N2c3ccc(C(=O)Nc4cncc(Cl)c4)cc3C3(CCS(=O)(=O)CC3)C2C2CC2)cc1 (single isomer, unassigned) [Example 71.1, N-(5-chloropyridin-3-yl)-1-[(4-cyanophenyl)sulfonyl]-2-cyclopropyl-1,2,2′,3′,5′,6′-hexahydrospiro[indole-3,4′-thiopyran]-5-carboxamide 1′,1′-dioxide] here?
**A.** 49 nM

**Q.** With N#Cc1ccc(S(=O)(=O)N2c3ccc(C(=O)Nc4cncc(Cl)c4)cc3C3(CCS(=O)(=O)CC3)C2C2CC2)cc1 (single isomer, unassigned) [Example 71.2, N-(5-chloropyridin-3-yl)-1-[(4-cyanophenyl)sulfonyl]-2-cyclopropyl-1,2,2′,3′,5′,6′-hexahydrospiro[indole-3,4′-thiopyran]-5-carboxamide 1′,1′-dioxide] as the molecule, how does the IC50 read?
**A.** 1630 nM

**Q.** For N#Cc1ccc(S(=O)(=O)N2c3ccc(C(=O)NCc4ccccc4C(F)(F)F)cc3C3(CCS(=O)(=O)CC3)C2C2CC2)cc1 (single isomer, unassigned) [Example 72.1, 1-[(4-cyanophenyl)sulfonyl]-2-cyclopropyl-N-[2-(trifluoromethyl)benzyl]-1,2,2′,3′,5′,6′-hexahydrospiro[indole-3,4′-thiopyran]-5-carboxamide 1′,1′-dioxide], which IC50 is on record?
**A.** 11 nM

**Q.** N#Cc1ccc(S(=O)(=O)N2c3ccc(C(=O)NCc4ccccc4C(F)(F)F)cc3C3(CCS(=O)(=O)CC3)C2C2CC2)cc1 (single isomer, unassigned) [Example 72.2, 1-[(4-cyanophenyl)sulfonyl]-2-cyclopropyl-N-[2-(trifluoromethyl)benzyl]-1,2,2′,3′,5′,6′-hexahydrospiro[indole-3,4′-thiopyran]-5-carboxamide 1′,1′-dioxide] was tested. Which IC50 did it give?
**A.** 403 nM

**Q.** With N#Cc1cccc(S(=O)(=O)N2c3ccc(C(=O)NCc4ccccc4Cl)cc3C3(CCS(=O)(=O)CC3)C2C2CC2)c1 (single isomer, unassigned) [Example 76.1, N-(2-chlorobenzyl)-1-[(3-cyanophenyl)sulfonyl]-2-cyclopropyl-1,2,2′,3′,5′,6′-hexahydrospiro[indole-3,4′-thiopyran]-5-carboxamide 1′,1′-dioxide] as the molecule, how does the IC50 read?
**A.** 21 nM

**Q.** Which IC50 does the source give for N#Cc1cccc(S(=O)(=O)N2c3ccc(C(=O)NCc4ccccc4Cl)cc3C3(CCS(=O)(=O)CC3)C2C2CC2)c1 (single isomer, unassigned) [Example 76.2, N-(2-chlorobenzyl)-1-[(3-cyanophenyl)sulfonyl]-2-cyclopropyl-1,2,2′,3′,5′,6′-hexahydrospiro[indole-3,4′-thiopyran]-5-carboxamide 1′,1′-dioxide] here?
**A.** 689 nM

**Q.** For N#Cc1cccc(S(=O)(=O)N2c3ccc(C(=O)Nc4cncc(Cl)c4)cc3C3(CCS(=O)(=O)CC3)C2C2CC2)c1 (single isomer, unassigned) [Example 77.1, N-(5-chloropyridin-3-yl)-1-[(3-cyanophenyl)sulfonyl]-2-cyclopropyl-1,2,2′,3′,5′,6′-hexahydrospiro[indole-3,4′-thiopyran]-5-carboxamide 1′,1′-dioxide], which IC50 is on record?
**A.** 54 nM

**Q.** How did the IC50 turn out when N#Cc1cccc(S(=O)(=O)N2c3ccc(C(=O)Nc4cncc(Cl)c4)cc3C3(CCS(=O)(=O)CC3)C2C2CC2)c1 (single isomer, unassigned) [Example 77.2, N-(5-chloropyridin-3-yl)-1-[(3-cyanophenyl)sulfonyl]-2-cyclopropyl-1,2,2′,3′,5′,6′-hexahydrospiro[indole-3,4′-thiopyran]-5-carboxamide 1′,1′-dioxide] was run?
**A.** 963 nM

**Q.** How did the IC50 turn out when N#Cc1cccc(S(=O)(=O)N2c3ccc(C(=O)NCc4ncccc4C(F)(F)F)cc3C3(CCS(=O)(=O)CC3)C2C2CC2)c1 (single isomer, unassigned) [Example 79.1, 1-[(3-cyanophenyl)sulfonyl]-2-cyclopropyl-N-{[3-(trifluoromethyl)pyridin-2-yl]methyl}-1,2,2′,3′,5′,6′-hexahydrospiro[indole-3,4′-thiopyran]-5-carboxamide 1′,1′-dioxide] was run?
**A.** 54 nM

**Q.** N#Cc1cccc(S(=O)(=O)N2c3ccc(C(=O)NCc4ncccc4C(F)(F)F)cc3C3(CCS(=O)(=O)CC3)C2C2CC2)c1 (single isomer, unassigned) [Example 79.2, 1-[(3-cyanophenyl)sulfonyl]-2-cyclopropyl-N-{[3-(trifluoromethyl)pyridin-2-yl]methyl}-1,2,2′,3′,5′,6′-hexahydrospiro[indole-3,4′-thiopyran]-5-carboxamide 1′,1′-dioxide] was tested. Which IC50 did it give?
**A.** 1020 nM

**Q.** Which IC50 does the source give for N#Cc1cccc(S(=O)(=O)N2c3ccc(C(=O)Nc4ccon4)cc3C3(CCS(=O)(=O)CC3)C2C2CC2)c1 (single isomer, unassigned) [Example 80.1, 1-[(3-cyanophenyl)sulfonyl]-2-cyclopropyl-N-(1,2-oxazol-3-yl)-1,2,2′,3′,5′,6′-hexahydrospiro[indole-3,4′-thiopyran]-5-carboxamide 1′,1′-dioxide] here?
**A.** 315 nM

**Q.** How did the IC50 turn out when N#Cc1cccc(S(=O)(=O)N2c3ccc(C(=O)Nc4ccon4)cc3C3(CCS(=O)(=O)CC3)C2C2CC2)c1 (single isomer, unassigned) [Example 80.2, 1-[(3-cyanophenyl)sulfonyl]-2-cyclopropyl-N-(1,2-oxazol-3-yl)-1,2,2′,3′,5′,6′-hexahydrospiro[indole-3,4′-thiopyran]-5-carboxamide 1′,1′-dioxide] was run?
**A.** > 20000 nM

**Q.** For COC(=O)c1cccc(NC(=O)c2ccc3c(c2)C2(CCS(=O)(=O)CC2)C(C2CC2)N3S(=O)(=O)c2cccc(OC(F)F)c2)c1 (single isomer, unassigned) [Example 89.1, methyl 3-{[(2-cyclopropyl-1-{[3-(difluoromethoxy)phenyl]sulfonyl}-1′,1′-dioxido-1,2,2′,3′,5′,6′-hexahydrospiro[indole-3,4′-thiopyran]-5-yl)carbonyl]amino}benzoate], which IC50 is on record?
**A.** 63 nM

**Q.** COC(=O)c1cccc(NC(=O)c2ccc3c(c2)C2(CCS(=O)(=O)CC2)C(C2CC2)N3S(=O)(=O)c2cccc(OC(F)F)c2)c1 (single isomer, unassigned) [Example 89.2, methyl 3-{[(2-cyclopropyl-1-{[3-(difluoromethoxy)phenyl]sulfonyl}-1′,1′-dioxido-1,2,2′,3′,5′,6′-hexahydrospiro[indole-3,4′-thiopyran]-5-yl)carbonyl]amino}benzoate] was tested. Which IC50 did it give?
**A.** > 20000 nM

**Q.** O=C(O)c1cccc(NC(=O)c2ccc3c(c2)C2(CCS(=O)(=O)CC2)C(C2CC2)N3S(=O)(=O)c2cccc(OC(F)F)c2)c1 (single isomer, unassigned) [Example 90.1, 3-{[(2-cyclopropyl-1-{[3-(difluoromethoxy)phenyl]sulfonyl}-1′,1′-dioxido-1,2,2′,3′,5′,6′-hexahydrospiro[indole-3,4′-thiopyran]-5-yl)carbonyl]amino}benzoic acid] was tested. Which IC50 did it give?
**A.** 41 nM

**Q.** For O=C(O)c1cccc(NC(=O)c2ccc3c(c2)C2(CCS(=O)(=O)CC2)C(C2CC2)N3S(=O)(=O)c2cccc(OC(F)F)c2)c1 (single isomer, unassigned) [Example 90.2, 3-{[(2-cyclopropyl-1-{[3-(difluoromethoxy)phenyl]sulfonyl}-1′,1′-dioxido-1,2,2′,3′,5′,6′-hexahydrospiro[indole-3,4′-thiopyran]-5-yl)carbonyl]amino}benzoic acid], which IC50 is on record?
**A.** 2860 nM

**Q.** CC1N(S(=O)(=O)c2ccc(F)cc2)c2ccc(C(=O)NCc3ccccc3Cl)cc2C12CCOCC2 (stereo not drawn) [Example 2, N-(2-chlorobenzyl)-1-[(4-fluorophenyl)sulfonyl]-2-methyl-1,2,2′,3′,5′,6′-hexahydrospiro[indole-3,4′-pyran]-5-carboxamide] was tested. Which IC50 did it give?
**A.** 189 nM

— US20140357655A1, “SPIROINDOLINE DERIVATIVES AS GONADOTROPIN- RELEASING HORMONE RECEPTOR ANTAGONISTS” (Bayer Intellectual Property GmbH, priority 2012, published 2014)
